Activity calls are given as the source filed them. The calls are words filed in the database; no cut-off is given here.
Tests used:
Autotaxin [1] = target: Autotaxin (Mus musculus, UniProt Q9R1E6); experiment: Inhibition of ATX in mouse plasma after 2 hrs by LC-MS/MS analysis; assay type: cell-free
Danio rerio = species on record: Danio rerio; experiment: Inhibition of AB/TU zebra fish ATX expressed in one-cell stage zebra fish embryos assessed as rescue of carida bifida phenotype at 10 uM incubated for 12 to 24 hrs post fertilization in presence of Ki16425 by whole mount in situ hybridization based microscopic analysis relative to control
Autotaxin [2] = target: T1, Autotaxin (Homo sapiens, UniProt Q13822); experiment: Inhibition of ATX (unknown origin) expressed in human HEK293 cells using TG-mTMP as substrate after 2 hrs by fluorescence based plate reader assay
Autotaxin (Mus musculus) [3] = target: Autotaxin (Mus musculus) (UniProt Q9R1E6); experiment: Inhibition of mouse ATX expressed in one-cell stage zebra fish embryos assessed as rescue of cardia bifida phenotype at 10 uM incubated for 12 to 24 hrs post fertilization in presence of Ki16425 by whole mount in situ hybridization based microscopic analysis relative to control
Autotaxin (Mus musculus) [4] = target: Autotaxin (Mus musculus) (UniProt Q9R1E6); experiment: Inhibition of ATX in mouse plasma assessed as reduction in LPA prodution at 10 uM after 3 hrs by LC-MS/MS analysis; assay type: cell-free
Autotaxin (Mus musculus) [5] = target: Autotaxin (Mus musculus) (UniProt Q9R1E6); experiment: Inhibition of ATX in mouse plasma assessed as reduction in LPA prodution after 3 hrs by LC-MS/MS analysis; assay type: cell-free
Mus musculus = experiment: In vivo inhibition of ATX in C57BL/6J mouse assessed as reduction in serum LPA level at 4 mg/kg, iv after 15 mins to 3 hrs by LC-MS/MS analysis; assay type: functional, organism-based
Autotaxin [6] = target: T1, Autotaxin; experiment: Inhibition of ATX (unknown origin)-mediated cell migration in human MDA-MB-231 cells assessed as reduction in cell motility after 3 hrs by Diff-Quick staining based microplate reader analysis

For `CCOC(=O)Cn1c(C)cc(=O)n2cc(-c3cccc(N)c3)nc12`, the IC50 (Autotaxin [1]; read-out: IC50) was greater than 10 µM.

`CCCCCCCCCC(=O)n1c(C)cc(=O)n2cc(-c3ccc(Cl)cc3)nc12` showed an IC50 (Autotaxin [1]; read-out: IC50) of 0.16 µM.

`Cc1cc(=O)n2cc(-c3ccc(Cl)cc3)nc2n1CC[N+](C)(C)C` gave an IC50 (Autotaxin [1]; read-out: IC50) greater than 50 µM.

Molecule `CN1CCN(C2=NC(=O)/C(=C/c3ccc(Cl)c(Cl)c3)S2)CC1` has an inhibition (Danio rerio) of 3%, an IC50 (Autotaxin [2]) of 0.18 µM and an inhibition (Autotaxin (Mus musculus) [3]) of 96%.

With `CCNC(=O)Cn1c(C)cc(=O)n2cc(-c3ccc(Cl)cc3)nc12` the inhibition (Autotaxin (Mus musculus) [4]) was “inactive” and the IC50 (Autotaxin [1]; read-out: IC50) was 0.37 µM.

For `Cc1cc(O)n2cc(-c3ccc(F)cc3)nc2n1`, the inhibition (Autotaxin (Mus musculus) [4]) was “inactive” and the IC50 (Autotaxin [1]; read-out: IC50) was greater than 50 µM.

For `Cc1cc(O)n2cc(-c3cccc(Br)c3)nc2n1`, the inhibition (Autotaxin (Mus musculus) [4]) was “inactive” and the IC50 (Autotaxin [1]; read-out: IC50) was greater than 50 µM.

For `COc1cc(C)nc2nc(-c3ccc(Cl)cc3)cn12`, the IC50 (Autotaxin [1]; read-out: IC50) was greater than 50 µM.

For `CC(=O)OCn1c(C)cc(=O)n2cc(-c3ccc(Cl)cc3)nc12`, the IC50 (Autotaxin [1]; read-out: IC50) was 0.03 µM.

For `CCOC(=O)Cn1c(C)cc(=O)n2cc(-c3ccccc3)nc12`, the IC50 (Autotaxin [1]; read-out: IC50) was 0.072 µM.

For `CCCCCn1c(C)cc(=O)n2cc(-c3ccc(Cl)cc3)nc12`, the inhibition (Autotaxin (Mus musculus) [4]) was “Active”, the IC50 (Autotaxin [1]; read-out: IC50) was 0.0094 µM and the inhibition (Autotaxin (Mus musculus) [5]) was “Dose-dependent effect”. The inhibition (Mus musculus) was “Active”.

`CCCCCn1c(C)cc(=O)n2cc(-c3ccc(Br)cc3)nc12` was tested, and the inhibition (Autotaxin (Mus musculus) [4]) was “Active”, the IC50 (Autotaxin [1]; read-out: IC50) was 0.023 µM and the inhibition (Autotaxin (Mus musculus) [5]) was “Dose-dependent effect”.

In the case of `Cc1cc(O)n2cc(-c3ccc(Cl)c(Cl)c3)nc2n1`, the inhibition (Autotaxin (Mus musculus) [4]) is reported as “inactive” and the IC50 (Autotaxin [1]; read-out: IC50) is reported as greater than 50 µM.

With `Cc1cc(=O)n2cc(-c3ccc(Cl)cc3)nc2n1CC(=O)OCc1ccccc1` the inhibition (Autotaxin (Mus musculus) [4]) was “inactive” and the IC50 (Autotaxin [1]; read-out: IC50) was 0.056 µM.

In the case of `Cc1cc(O)n2cc(-c3ccc(Cl)cc3)nc2n1`, the inhibition (Autotaxin (Mus musculus) [4]) is reported as “inactive” and the IC50 (Autotaxin [1]; read-out: IC50) is reported as greater than 50 µM.

For `CCOC(=O)Cn1c(C)cc(=O)n2cc(-c3ccc(N)cc3)nc12`, the IC50 (Autotaxin [1]; read-out: IC50) was greater than 10 µM.

With `Cc1cc(=O)n2cc(-c3ccc(Cl)cc3)nc2n1CCS(=O)(=O)O` the IC50 (Autotaxin [1]; read-out: IC50) was greater than 50 µM.

Work on `CCOC(=O)Cn1c(C)cc(=O)n2cc(-c3ccc(Cl)c(Cl)c3)nc12` yielded an IC50 (Autotaxin [1]; read-out: IC50) of 0.079 µM.

For `CCCCCCn1c(C)cc(=O)n2cc(-c3ccc(Cl)cc3)nc12`, the inhibition (Autotaxin [6]) was “Dose-dependent effect”, the inhibition (Autotaxin (Mus musculus) [4]) was “Active” and the IC50 (Autotaxin [1]; read-out: IC50) was 0.0099 µM. For the same molecule, the inhibition (Autotaxin (Mus musculus) [5]) was “Dose-dependent effect” and the inhibition (Mus musculus) was “Active”.

Molecule `CCn1c(C)cc(=O)n2cc(-c3ccc(Cl)cc3)nc12` has an IC50 (Autotaxin [1]; read-out: IC50) of 0.04 µM.

`CCOC(=O)Cn1c(C)cc(=O)n2cc(-c3ccc([N+](=O)[O-])cc3)nc12` was tested, and the IC50 (Autotaxin [1]; read-out: IC50) was 0.014 µM.

With `Cc1ccc(-c2cn3c(O)cc(C)nc3n2)cc1` the inhibition (Autotaxin (Mus musculus) [4]) was “inactive” and the IC50 (Autotaxin [1]; read-out: IC50) was greater than 50 µM.

With `Cc1cc(=O)n2cc(-c3ccc(Cl)cc3)nc2n1CC(=O)OC(C)(C)C` the inhibition (Autotaxin (Mus musculus) [4]) was “inactive” and the IC50 (Autotaxin [1]; read-out: IC50) was 0.09 µM.

In the case of `CCOC(=O)Cn1c(C)cc(=O)n2cc(-c3ccc(Br)cc3)nc12`, the inhibition (Autotaxin (Mus musculus) [4]) is reported as “inactive” and the IC50 (Autotaxin [1]; read-out: IC50) is reported as 0.013 µM.

`Cc1nc2ccccn2c(=O)c1Cc1ccc(Cl)cc1` was tested, and the inhibition (Danio rerio) was 6% and the inhibition (Autotaxin (Mus musculus) [3]) was 91%.

`Cc1cc(O)n2cc(-c3cccc([N+](=O)[O-])c3)nc2n1` was tested, and the inhibition (Autotaxin (Mus musculus) [4]) was “inactive” and the IC50 (Autotaxin [1]; read-out: IC50) was greater than 50 µM.

For `CCN1CCN(C2=NC(=O)/C(=C/c3ccc(Cl)cc3)S2)CC1`, the inhibition (Danio rerio) was 10% and the inhibition (Autotaxin (Mus musculus) [3]) was 95%.

In the case of `Cc1cc(=O)n2cc(-c3ccc(Cl)cc3)nc2n1Cc1ccccc1`, the inhibition (Autotaxin (Mus musculus) [4]) is reported as “Active” and the IC50 (Autotaxin [1]; read-out: IC50) is reported as 0.031 µM.

`CCOC(=O)Cn1c(C)cc(=O)n2cc(-c3ccc(Cl)cc3)nc12` was tested, and the inhibition (Danio rerio) was 8%, the inhibition (Autotaxin (Mus musculus) [4]) was “inactive” and the IC50 (Autotaxin [2]) was 0.0042 µM. It also gave an IC50 (Autotaxin [1]; read-out: IC50) of 0.0033 µM and an inhibition (Autotaxin (Mus musculus) [3]) of 93%.

In the case of `CCCCCCCCCCCCCCCC(=O)n1c(C)cc(=O)n2cc(-c3ccc(Cl)cc3)nc12`, the IC50 (Autotaxin [1]) is reported as “Nd(Insoluble)”.

`CCOC(=O)Cn1c(C)cc(=O)n2cc(-c3cccc([N+](=O)[O-])c3)nc12` gave an IC50 (Autotaxin [1]; read-out: IC50) of 0.5 µM.

With `CCOC(=O)Cn1c(C)cc(=O)n2cc(-c3ccc(OC)cc3)nc12` the inhibition (Autotaxin (Mus musculus) [4]) was “inactive” and the IC50 (Autotaxin [1]; read-out: IC50) was 0.049 µM.

For `CCCCCn1c(C)cc(=O)n2cc(-c3ccc(C)cc3)nc12`, the inhibition (Autotaxin (Mus musculus) [4]) was “Active” and the IC50 (Autotaxin [1]; read-out: IC50) was 0.044 µM.

Work on `CCN(C)C(=O)Cn1c(C)cc(=O)n2cc(-c3ccc(Cl)cc3)nc12` yielded an IC50 (Autotaxin [1]; read-out: IC50) of 0.22 µM.

With `CCOC(=O)Cn1c(C)cc(=O)n2cc(-c3ccc(I)cc3)nc12` the IC50 (Autotaxin [1]; read-out: IC50) was 0.019 µM.

For `Cc1cc(O)n2cc(-c3ccccc3)nc2n1`, the inhibition (Autotaxin (Mus musculus) [4]) was “inactive” and the IC50 (Autotaxin [1]; read-out: IC50) was greater than 50 µM.

`CCOCCn1c(C)cc(=O)n2cc(-c3ccc(Cl)cc3)nc12` was tested, and the inhibition (Autotaxin (Mus musculus) [4]) was “Active” and the IC50 (Autotaxin [1]; read-out: IC50) was 0.011 µM.

In the case of `Cc1cc(=O)n2cc(-c3ccc(Cl)cc3)nc2n1CC(=O)O`, the inhibition (Autotaxin (Mus musculus) [4]) is reported as “inactive” and the IC50 (Autotaxin [1]; read-out: IC50) is reported as 7.7 µM.

`CCCCCn1c(C)cc(=O)n2cc(-c3ccc(F)cc3)nc12` was tested, and the inhibition (Autotaxin (Mus musculus) [4]) was “Active” and the IC50 (Autotaxin [1]; read-out: IC50) was 0.071 µM.

`CCCCCCCCCn1c(C)cc(=O)n2cc(-c3ccc(Cl)cc3)nc12` showed an IC50 (Autotaxin [1]; read-out: IC50) of 0.12 µM.

Molecule `O=C1N=C(N2CCN(Cc3cccc(B(O)O)c3)CC2)S/C1=C\c1ccc(Cl)c(Cl)c1` has an IC50 (Autotaxin [2]) of 0.013 µM and an inhibition (Autotaxin (Mus musculus) [3]) of 98%.

In the case of `Cc1cc(=O)n2cc(-c3ccc(Cl)cc3)nc2n1C1CCCCC1`, the inhibition (Autotaxin (Mus musculus) [4]) is reported as “Active” and the IC50 (Autotaxin [1]; read-out: IC50) is reported as 0.073 µM.

With `CCOC(=O)Cn1c(C)cc(=O)n2cc(-c3ccc(F)cc3)nc12` the inhibition (Autotaxin (Mus musculus) [4]) was “inactive” and the IC50 (Autotaxin [1]; read-out: IC50) was 0.031 µM.

For `Cc1cc(O)n2cc(-c3ccc(Br)cc3)nc2n1`, the inhibition (Autotaxin (Mus musculus) [4]) was “inactive” and the IC50 (Autotaxin [1]; read-out: IC50) was greater than 50 µM.

In the case of `CCCCCCCn1c(C)cc(=O)n2cc(-c3ccc(Cl)cc3)nc12`, the inhibition (Autotaxin (Mus musculus) [4]) is reported as “Active” and the IC50 (Autotaxin [1]; read-out: IC50) is reported as 0.016 µM.

In the case of `Cc1cc(O)n2cc(-c3ccc([N+](=O)[O-])cc3)nc2n1`, the inhibition (Autotaxin (Mus musculus) [4]) is reported as “inactive” and the IC50 (Autotaxin [1]; read-out: IC50) is reported as greater than 50 µM.

Molecule `CCOC(=O)Cn1c(C)cc(=O)n2cc(-c3cccc(Br)c3)nc12` has an IC50 (Autotaxin [1]; read-out: IC50) of 4 µM.

With `Cc1cc(=O)n2cc(-c3ccc(Cl)cc3)nc2n1C` the IC50 (Autotaxin [1]; read-out: IC50) was 0.18 µM.

With `CCCCn1c(C)cc(=O)n2cc(-c3ccc(Cl)cc3)nc12` the inhibition (Autotaxin (Mus musculus) [4]) was “Active” and the IC50 (Autotaxin [1]; read-out: IC50) was 0.015 µM.

With `COc1ccc(-c2cn3c(O)cc(C)nc3n2)cc1` the inhibition (Autotaxin (Mus musculus) [4]) was “inactive” and the IC50 (Autotaxin [1]; read-out: IC50) was greater than 50 µM.

`CCCCCCCCn1c(C)cc(=O)n2cc(-c3ccc(Cl)cc3)nc12` was tested, and the IC50 (Autotaxin [1]; read-out: IC50) was 0.057 µM.

`CCC(=O)Cn1c(C)cc(=O)n2cc(-c3ccc(Cl)cc3)nc12` was tested, and the inhibition (Autotaxin (Mus musculus) [4]) was “Active” and the IC50 (Autotaxin [1]; read-out: IC50) was 0.037 µM.

In the case of `COC(=O)Cn1c(C)cc(=O)n2cc(-c3ccc(Cl)cc3)nc12`, the inhibition (Autotaxin (Mus musculus) [4]) is reported as “inactive” and the IC50 (Autotaxin [1]; read-out: IC50) is reported as 0.026 µM.

`CCCCCCCN/C=C1\C(=O)N(c2ccc(F)cc2)C(=O)N=C1O` gave an inhibition (Danio rerio) of 1% and an inhibition (Autotaxin (Mus musculus) [3]) of 94%.

`CCCn1c(C)cc(=O)n2cc(-c3ccc(Cl)cc3)nc12` gave an IC50 (Autotaxin [1]; read-out: IC50) of 0.021 µM.

`Cc1cc(Cl)n2cc(-c3ccc(Cl)cc3)nc2n1` was tested, and the IC50 (Autotaxin [1]; read-out: IC50) was greater than 50 µM.

— ChEMBL document CHEMBL4402579, “Identification of Potent In Vivo Autotaxin Inhibitors that Bind to Both Hydrophobic Pockets and Channels in the Catalytic Domain” (J Med Chem, 2020)
